Patent US20220252575A1, “SCREENING METHOD AND TOXICITY EVALUATION METHOD” (Public University Corporation Yokohama City University, priority 2019, published 2022)

Tested on: iPS cell-derived human hepatic sinusoidal endothelial cells
Test: Detection of membrane attack complex in iPS cell-derived human hepatic sinusoidal endothelial cell with Oxaliplatin administration
Assay type: cell-based
Conditions: Oxaliplatin final concentration 20 μM vs solvent (ethanol), 3% human serum, 10% organoid culture supernatant

SMILES: O=C1[O][Pt]2([NH][C@@H]3CCCC[C@H]3[NH]2)[O]C1=O [Oxaliplatin]
- number of cells (quantified with DAPI as an index) (24 hr (FIG. 4A)): significant decrease in the number of cells
- amount of MAC formed by human serum (24 hr (FIG. 4B)): significantly increased
